Common to all, as to format: cell-based
In assay [1] the test system is ACCMESO1. Briefly: Colony formation (CFU) assay, ACCMESO1. The note with it: ACC-MESO-1, 336 h; ACCMESO1, pleura; CFU ~14 days; wells with DMSO or 300 nM Compound 1; read-out: Chemotherapy nM IC50s. As for the experimental part: (§1) In vitro experiments were conducted using the colony formation unit (CFU) assay on various cell lines. The CFU assay involved first establishing what cell plating density enabled the development of clearly interspersed colonies on a six-well plate when left to grow for around 14 days. […] At or around day 14 when clearly interspersed colonies were visible in the DMSO-treated wells, the cells were fixed and stained using 0.1% crystal violet in 10% ethanol for 20 minutes at room temperature. The plates were imaged then the amount of crystal violet stain in each well was quantified by extracting the crystal violet into 10% acetic acid and the absorbance measured at 565 nm.
(§2) For certain cell lines, multiple IC50 values were taken, and those are separated by commas. Synergy scores are in parentheticals.

In assay [2] the test system is COV362. Kind of assay: Colony formation (CFU) assay, COV362. The following applies: 336 h; COV362, ovary; CFU ~14 days; wells with DMSO or 300 nM Compound 1; read-out: Chemotherapy nM IC50s. As for the experimental part:
as §1, §2

For assay [3], the system named is HCC1937. Briefly: Colony formation (CFU) assay, HCC1937. The note with it: HCC1937, breast, CFU ~14 days, wells with DMSO or 300 nM Compound 1, read-out: Chemotherapy nM IC50s. Here is the method:
as §1, §2

Assay [4] has as its system KALS1. Kind of assay: Colony formation (CFU) assay, KALS1. The note with it: Homo sapiens, KALS-1, 336 h; KALS1, nervous system; CFU ~14 days; wells with DMSO or 300 nM Compound 1; read-out: Chemotherapy nM IC50s. As for the experimental part: as §1, §2
The subject of assay [5] is MERO14. Kind of assay: Colony formation (CFU) assay, MERO14. The note with it: CFU ~14 days, wells with DMSO or 300 nM Compound 1, read-out: Chemotherapy nM IC50s. Here is the method: as §1, §2
Assay [6] has as its system MSTO211H. Kind of assay: Colony formation (CFU) assay, MSTO211H. The following applies: pleura, CFU ~14 days, wells with DMSO or 300 nM Compound 1, read-out: Chemotherapy nM IC50s. As for the experimental part:
as §1, §2

In assay [7] the test system is NCIH2452. Kind of assay: Colony formation (CFU) assay, NCIH2452. The note with it: Homo sapiens, NCI-H2452, 336 h; NCIH2452, pleura; CFU ~14 days; wells with DMSO or 300 nM Compound 1; read-out: Chemotherapy nM IC50s. As for the experimental part: as §1, §2
For assay [8], the system named is OVSAHO. Kind of assay: Colony formation (CFU) assay, OVSAHO. The following applies: Homo sapiens, 336 h, ovary, CFU ~14 days, wells with DMSO or 300 nM Compound 1, read-out: Chemotherapy nM IC50s. As for the experimental part:
as §1, §2

Assay [9] deals with UWB1289. Kind of assay: Colony formation (CFU) assay, UWB1289. The note with it: 336 h; UWB1289, ovary; CFU ~14 days; wells with DMSO or 300 nM Compound 1; read-out: Chemotherapy nM IC50s. As for the experimental part:
as §1, §2

For assay [10], the system named is BECKER. Kind of assay: Colony formation (CFU) assay, BECKER. The following applies: CFU ~14 days, wells with DMSO or 300 nM Compound 1, read-out: Chemotherapy nM IC50s. As for the experimental part:
as §1, §2

Assay [11] deals with NCIH1650. Kind of assay: Colony formation (CFU) assay, NCIH1650. The following applies: NCIH1650, lung, CFU ~14 days, wells with DMSO or 300 nM Compound 1, read-out: Chemotherapy nM IC50s. As for the experimental part: as §1, §2
Assay [12] relates to NCIH1915. Briefly: Colony formation (CFU) assay, NCIH1915. The following applies: NCIH1915, lung, CFU ~14 days, wells with DMSO or 300 nM Compound 1, read-out: Chemotherapy nM IC50s. As for the experimental part:
as §1, §2

Assay [13] deals with U251MG. Briefly: Colony formation (CFU) assay, U251MG. The note with it: nervous system, CFU ~14 days, wells with DMSO or 300 nM Compound 1, read-out: Chemotherapy nM IC50s. Here is the method:
as §1, §2

For assay [14], the system named is 647V. Briefly: Colony formation (CFU) assay, 647V. The following applies: Homo sapiens, 336 h, bladder, CFU ~14 days, wells with DMSO or 300 nM Compound 1, read-out: Chemotherapy nM IC50s. As for the experimental part: as §1, §2
Assay [15] deals with HCC1806. Kind of assay: Colony formation (CFU) assay, HCC1806. The note with it: HCC1806, breast, CFU ~14 days, wells with DMSO or 300 nM Compound 1, read-out: Chemotherapy nM IC50s (converted). As for the experimental part: as §1, §2
For assay [16], the system named is SUM149PT. Briefly: Colony formation (CFU) assay, SUM149PT. The note with it: breast. As for the experimental part: as §1, §2
The test system of assay [17] is A549. Briefly: Colony formation (CFU) assay, A549. The note with it: Homo sapiens, 336 h; A549, lung; CFU ~14 days; wells with DMSO or 300 nM Compound 1; read-out: Chemotherapy nM IC50s. Here is the method: as §1, §2
For assay [18], the system named is CAPAN2. Briefly: Colony formation (CFU) assay, CAPAN2. The note with it: CAPAN2, pancreas, CFU ~14 days, wells with DMSO or 300 nM Compound 1, read-out: Chemotherapy nM IC50s. As for the experimental part: as §1, §2
Assay [19] has as its system HPAC. Kind of assay: Colony formation (CFU) assay, HPAC. The following applies: Homo sapiens, 336 h, pancreas, CFU ~14 days, wells with DMSO or 300 nM Compound 1, read-out: Chemotherapy nM IC50s. As for the experimental part:
as §1, §2

Assay [20] relates to MDAMB231. Briefly: Colony formation (CFU) assay, MDAMB231. The following applies: MDAMB231, breast, CFU ~14 days, wells with DMSO or 300 nM Compound 1, read-out: Chemotherapy nM IC50s. Here is the method:
as §1, §2

Read-outs that look alike come from different tables or passages of the source.

Consider `COc1cccc2c1C(=O)c1c(O)c3c(c(O)c1C2=O)C[C@@](O)(C(=O)CO)C[C@@H]3O[C@H]1C[C@H](N)[C@H](O)[C@H](C)O1` [Dox., doxorubicin], for which the IC50 was determined as 19 nM in assay [1]; 108 nM in assay [2]; 4 nM in assay [3]; 8 nM in assay [3] (Homo sapiens, HCC1937, 336 h); 52 nM in assay [4]; 17 nM in [5] (336 h). In addition, the IC50 in assay [5] was 14 nM; in assay [6] (Homo sapiens, MSTO-211H, 336 h) it was 16 nM; in assay [6], 8 nM; in [7], 21 nM; in [8] it was 147 nM; in assay [9], 76 nM.
`COc1cc([C@@H]2c3cc4c(cc3[C@@H](O[C@@H]3O[C@@H]5CO[C@@H](C)O[C@H]5[C@H](O)[C@H]3O)[C@H]3COC(=O)[C@H]23)OCO4)cc(OC)c1O` [Etop., etoposide]: the IC50 worked out at 837 nM in assay [10], 270 nM in assay [11], 500 nM in assay [12] and 583 nM in assay [13].
Regarding `Nc1ccn([C@@H]2O[C@H](CO)[C@@H](O)C2(F)F)c(=O)n1` [Gem., gemcitabine], the IC50 is 2 nM in [14]; below 1 nM in assay [15] (Homo sapiens, 336 h); 1 nM in assay [16] (Homo sapiens, 336 h, CFU ~14 days, wells with DMSO or 300 nM Compound 1, read-out: Chemotherapy nM IC50s). Also, in assay [16] (chemotherapy agent in combination with 300 nM Compound 1), the synergy score entry is “(−1)”.
As to `CC(=O)O[C@H]1C(=O)[C@@]2(C)[C@H]([C@H](OC(=O)c3ccccc3)[C@]3(O)C[C@H](OC(=O)[C@H](O)[C@@H](NC(=O)c4ccccc4)c4ccccc4)C(C)=C1C3(C)C)[C@]1(OC(C)=O)CO[C@@H]1C[C@@H]2O` [Pacli., paclitaxel], the IC50 is 2 nM in assay [17]; below 1 nM in assay [18]; 2 nM in [18] (Homo sapiens, Capan-2, 336 h); 13 nM in assay [2]; below 1 nM in assay [15]; 1 nM in assay [15] (Homo sapiens, HCC1806, 336 h). In addition, the IC50 in assay [19] is 3 nM; in [20] (Homo sapiens, MDA-MB-231, 336 h), 1 nM; in assay [20] it was below 1 nM; in assay [11] (Homo sapiens, NCI-H1650, 336 h), 1 nM; in assay [11], below 1 nM; in assay [12] (NCI-H1915, 336 h), below 1 nM. The IC50 in assay [8] turned out to be 78 nM; in assay [9], 43 nM.
